Experimental data reported in patent publication US20090312288A1 (TAKEDA PHARMACEUTICAL COMPANY LIMITED, priority 2008, published 2009).

Target: Aurora B/INCENP (Homo sapiens, UniProt Q96GD4)
Assay: Determination of inhibition of AIK: Aurora B/INCENP direct fluorescence polarization (IMAP) assay
Format: biochemical
Conditions: 10 uM ATP, 0.8 nM Aurora B/INCENP; values given as bins; read-out: IC50 of Exemplified Compounds Against AIK B

Chain of Aurora B/INCENP (Q96GD4 whole entry): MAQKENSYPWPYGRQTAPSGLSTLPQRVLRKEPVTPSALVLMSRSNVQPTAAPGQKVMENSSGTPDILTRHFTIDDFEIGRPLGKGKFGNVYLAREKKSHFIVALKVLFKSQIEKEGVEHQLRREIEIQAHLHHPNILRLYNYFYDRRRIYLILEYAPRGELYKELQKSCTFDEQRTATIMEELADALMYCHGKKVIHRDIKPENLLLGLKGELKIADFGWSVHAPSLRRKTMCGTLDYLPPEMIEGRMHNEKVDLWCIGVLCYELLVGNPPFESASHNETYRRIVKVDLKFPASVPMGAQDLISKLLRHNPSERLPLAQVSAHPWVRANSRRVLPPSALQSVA
Chain of Aurora B/INCENP (Q9NQS7 whole entry partner): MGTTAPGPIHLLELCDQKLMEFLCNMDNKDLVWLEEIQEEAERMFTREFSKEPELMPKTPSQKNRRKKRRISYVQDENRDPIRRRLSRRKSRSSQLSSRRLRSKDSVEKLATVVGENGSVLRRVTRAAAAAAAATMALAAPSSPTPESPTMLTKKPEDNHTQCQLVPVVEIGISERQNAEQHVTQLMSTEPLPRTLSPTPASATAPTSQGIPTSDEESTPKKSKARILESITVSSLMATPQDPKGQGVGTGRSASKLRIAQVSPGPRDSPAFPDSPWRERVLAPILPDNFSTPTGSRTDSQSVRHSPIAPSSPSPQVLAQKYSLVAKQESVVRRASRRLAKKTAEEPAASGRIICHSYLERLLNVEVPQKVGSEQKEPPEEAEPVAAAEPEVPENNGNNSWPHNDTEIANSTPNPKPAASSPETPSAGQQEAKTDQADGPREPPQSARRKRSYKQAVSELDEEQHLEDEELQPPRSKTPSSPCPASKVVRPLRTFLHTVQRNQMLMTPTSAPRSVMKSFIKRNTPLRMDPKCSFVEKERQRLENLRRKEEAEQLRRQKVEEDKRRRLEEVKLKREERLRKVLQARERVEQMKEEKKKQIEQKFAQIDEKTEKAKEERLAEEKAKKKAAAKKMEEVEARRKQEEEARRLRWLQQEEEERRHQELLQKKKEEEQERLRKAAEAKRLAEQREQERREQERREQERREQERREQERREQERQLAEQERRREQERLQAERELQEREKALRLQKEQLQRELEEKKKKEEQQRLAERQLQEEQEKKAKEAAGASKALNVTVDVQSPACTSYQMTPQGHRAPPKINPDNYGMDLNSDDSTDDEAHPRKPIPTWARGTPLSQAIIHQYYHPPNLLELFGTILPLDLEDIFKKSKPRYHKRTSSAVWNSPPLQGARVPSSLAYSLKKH

Compound	IC50 [nM]
CCS(=O)(=O)c1cccc(-c2ccc(OCC#N)c3[nH]c4ncc(C)cc4c23)c1 [Compound 209, 2-(5-(3-(ethylsulfonyl)phenyl)-3-methyl-9H-pyrido[2,3-b]indol-8-yloxy)acetonitrile]	< 4
CCS(=O)(=O)c1cccc(-c2ccc(OCCC#N)c3[nH]c4ncc(C)cc4c23)c1 [Compound 210, 3-(5-(3-(ethylsulfonyl)phenyl)-3-methyl-9H-pyrido[2,3-b]indol-8-yloxy)propanenitrile]	> 13
CCS(=O)(=O)c1cccc(-c2ccc(O[C@H](C)CO)c3[nH]c4ncc(C)cc4c23)c1 [Compound 212, (R)-2-(5-(3-(ethylsulfonyl)phenyl)-3-methyl-9H-pyrido[2,3-b]indol-8-yloxy)propan-1-ol]	5.6 to 8.5
CCS(=O)(=O)c1cccc(-c2ccc(O[C@@H](C)CO)c3[nH]c4ncc(C)cc4c23)c1 [Compound 213, (S)-2-(5-(3-(ethylsulfonyl)phenyl)-3-methyl-9H-pyrido[2,3-b]indol-8-yloxy)propan-1-ol]	4 to 5.5
CCS(=O)(=O)c1cccc(-c2ccc(OCCO)c3[nH]c4ncc(C)cc4c23)c1 [Compound 216, 2-(5-(3-(ethylsulfonyl)phenyl)-3-methyl-9H-pyrido[2,3-b]indol-8-yloxy)ethanol]	5.6 to 8.5
CCS(=O)(=O)c1cccc(-c2ccc(OCCCO)c3[nH]c4ncc(C)cc4c23)c1 [Compound 217, 3-(5-(3-(ethylsulfonyl)phenyl)-3-methyl-9H-pyrido[2,3-b]indol-8-yloxy)propan-1-ol]	4 to 5.5
CCS(=O)(=O)c1cccc(-c2ccc(OC)c3[nH]c4ncc(Cl)cc4c23)c1 [Compound 218]	< 4
CCS(=O)(=O)c1cccc(-c2ccc(OCCCN(C)C)c3[nH]c4ncc(Cl)cc4c23)c1 [Compound 220, 3-(3-chloro-5-(3-(ethylsulfonyl)phenyl)-9H-pyrido[2,3-b]indol-8-yloxy)-N,N-dimethylpropan-1-amine]	4 to 5.5
CCN(CC)CCOc1ccc(-c2cccc(S(=O)(=O)CC)c2)c2c1[nH]c1ncc(Cl)cc12 [Compound 221, 2-(3-chloro-5-(3-(ethylsulfonyl)phenyl)-9H-pyrido[2,3-b]indol-8-yloxy)-N,N-diethylethanamine]	5.6 to 8.5
CCS(=O)(=O)c1cccc(-c2ccc(OCCN(C)C)c3[nH]c4ncc(Cl)cc4c23)c1 [Compound 222, 2-(3-chloro-5-(3-(ethylsulfonyl)phenyl)-9H-pyrido[2,3-b]indol-8-yloxy)-N,N-dimethylethanamine]	4 to 5.5
CCS(=O)(=O)c1cccc(-c2ccc(OCCN3CCCC3)c3[nH]c4ncc(Cl)cc4c23)c1 [Compound 223, 3-chloro-5-(3-(ethylsulfonyl)phenyl)-8-(2-(pyrrolidin-1-yl)ethoxy)-9H-pyrido[2,3-b]indole]	5.6 to 8.5
CCS(=O)(=O)c1cccc(-c2ccc(OCCN3CCN(C)CC3)c3[nH]c4ncc(Cl)cc4c23)c1 [Compound 224, 3-chloro-5-(3-(ethylsulfonyl)phenyl)-8-(2-(4-methylpiperazin-1-yl)ethoxy)-9H-pyrido[2,3-b]indole]	5.6 to 8.5
CCS(=O)(=O)c1cccc(-c2ccc(OCCO)c3[nH]c4ncc(Cl)cc4c23)c1 [Compound 225, 2-(3-chloro-5-(3-(ethylsulfonyl)phenyl)-9H-pyrido[2,3-b]indol-8-yloxy)ethanol]	4 to 5.5
CCS(=O)(=O)c1cccc(-c2ccc(OCCOC(=O)[C@H](C)N)c3[nH]c4ncc(C)cc4c23)c1 [Compound 226, (S)-2-(5-(3-(ethylsulfonyl)phenyl)-3-methyl-9H-pyrido[2,3-b]indol-8-yloxy)ethyl 2-aminopropanoate]	5.6 to 8.5
CCS(=O)(=O)c1cccc(-c2ccc(OCCCOC(=O)[C@H](C)N)c3[nH]c4ncc(C)cc4c23)c1 [Compound 227, (S)-3-(5-(3-(ethylsulfonyl)phenyl)-3-methyl-9H-pyrido[2,3-b]indol-8-yloxy)propyl 2-aminopropanoate]	5.6 to 8.5
